Assay results from patent US20240408064A1, “RAS INHIBITORS, COMPOSITIONS AND METHODS OF USE THEREOF” (GENETOLEAD INC., priority 2021, published 2024).
pKd: −log10 of the molar value. Read-outs that look alike come from different tables or passages of the source.

How the values were obtained:
[1] = molecular target: T1, HRas^G12V (Homo sapiens (Human), UniProt P01112, G12V); test: 19F DLB (ligand-observed 19F NMR) score; assay type: binding; design: scale not given here
Outline: (§1)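 In the T2-CPMG experiment, echo spacing was 1 ms and total delays ranged over eight values from 1 to 800 ms. Both scores come from 600 MHz NMR of 50 μM HRas G12V mixed with fragment pools at 240 μM each, in phosphate buffer pH 7.4 with NaCl, MgCl2 and TCEP-d16. Ligand-observed 19F spectra were recorded with 1H decoupling, 64 scans and a 5 s relaxation delay.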

[2] = molecular target: T1, HRas^G12V; test: 19F T2-CPMG NMR score; assay type: binding
Outline: as §1

[3] = molecular target: T1, HRas^G12V; test: Dissociation constant by NMR (1H/15N Fast-HSQC, 1H 1D protein-observed); assay type: binding
Procedure: All NMR experiments were collected using 3 mm NMR tubes on a 600 MHz Bruker Avance III spectrometer equipped with a QCI helium cryoprobe and a SampleJet sample changer. The buffer used for NMR experiments was 25 mM sodium phosphate pH 7.4, 150 mM NaCl, 5 mM MgCl2, 1 mM TCEP-d16, 10% D2O. Data were processed using Bruker TopSpin.
^1H/^15N Fast-HSQC experiments (Mori et al., Journal of Magnetic Resonance, Series B, Volume 108, Issue 1, July 1995, Pages 94-98) were recorded at a protein concentration of 50-100 μM.
Dissociation constants were obtained by monitoring changes in chemical shifts as a function of ligand concentration. The changes in chemical shifts (d) were calculated according to the following equation (Williamson, Progress in Nuclear Magnetic Resonance Spectroscopy, Volume 73, August 2013, Pages 1-16): d=√(1/2[δ_H^2+[…]]), Where δ are the changes in chemical shift in ppm for ^1H and ^15N and the correction factor (α) was set at 0.15.
^1H 1D protein-observed experiments were recorded with 15-50 μM protein. The standard Bruker 1D ^1H sequence with excitation sculpting (zgesgp) was employed. A relaxation delay of 1 s was employed in order to use 256 scans while still keeping experimental time fairly short. Changes in protein chemical shift or peak intensity in the methyl region were monitored against compound concentration.

[4] = molecular target: T1, HRas^G12V; test: Overall binding/activity in the various assays (NMR consensus binding)
Outline: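 Fragments (240 µM each, pooled) screened against 50 µM HRas^G12V in 25 mM sodium phosphate pH 7.4, 150 mM NaCl, 5 mM MgCl2, 1 mM TCEP-d16 by 1H-decoupled 1D 19F NMR. Hits confirmed by ligand- and protein-observed 1D 1H, STD and T2-CPMG (aggregation check); consensus binding ranked, with 15N HSQC for sites and Kd.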

SMILES | 19F DLB Score [1] | 19F T2-CPMG Score [2] | pKd ([3]; HRas^G12V, read-out: NMR Kd) | Binding to HRas^G12V (in words) [4] | Activity ranking on HRas^G12V (in words) [4] | pKd [3]
CC(=O)N[C@H]1CCN(C(=O)Cc2c[nH]c3cc(F)ccc23)C1 [Compound 10041] | 1.86 | 3.92 | 2.05 to 2.28 | – | – | –
COCCNC(=O)Cc1c[nH]c2cc(F)ccc12 [Compound 10025] | 1.22 | 1.68 | 2.22 | low or no binding | – | –
O=C(Cc1c[nH]c2ncc(F)cc12)N1CCC1 [Compound 10035, 1-(azetidin-1-yl)-2-(5-fluoro-1H-pyrrolo[2,3-b]pyridin-3-yl)ethan-1-one] | 0.91 | −0.11 | < 2.00 | – | More active | –
CN(C)C[C@H]1CN(C(=O)Cc2c[nH]c3cc(F)ccc23)CCO1 [Compound 10160, (S)-1-(2-((dimethylamino)methyl)morpholino)-2-(6-fluoro-1H-indol-3-yl) ethan-1-one] | 6.24 | – | 2.89 | – | – | –
CN(C)C[C@@H]1CN(C(=O)Cc2c[nH]c3cc(F)ccc23)CCO1 [Compound 10159] | 3.93 | 19.26 | 2.47 to 2.53 | – | More active | –
CC(CCO)NC(=O)Cc1c[nH]c2cc(F)ccc12 (stereo not shown) [Compound 10026] | 1.23 | 3.17 | 2.00 | low or no binding | – | –
O=C(Cc1c[nH]c2cc(F)ccc12)NC1CCOCC1 [Compound 10027] | 1.42 | 3.77 | 2.13 | low or no binding | – | –
NC(=O)C1CN(C(=O)Cc2c[nH]c3cc(F)ccc23)C1 [Compound 10114, 1-(2-(6-fluoro-1H-indol-3-yl)acetyl)azetidine-3-carboxamide] | 2.14 | 15.2 | 1.96 | – | – | –
CS(=O)(=O)NCCc1c[nH]c2cc(F)ccc12 [Compound 10006, reference compound] | 3.24 | 19.5 | 2.00 | – | – | –
CC1CN(C(=O)Cc2c[nH]c3cc(F)cnc23)C1 [Compound 10174, 2-(6-fluoro-1H-pyrrolo[3,2-b]pyridin-3-yl)-1-(3-methylazetidin-1-yl) ethan-1-one] | 1.14 | 2.32 | – | low or no binding | – | –
O=C(CN1CCCCC1)c1c[nH]c2cc(F)ccc12 [compound 10076] | 3.34 | 37.86 | – | – | More active | –
CN1CCN(C(=O)Cc2c[nH]c3cc(F)ccc23)C[C@@H]1C(=O)O [Compound 10166, (R)-4-(2-(6-fluoro-1H-indol-3-yl)acetyl)-1-methylpiperazine-2-carboxylic Acid] | 1.55 | 7.19 | – | low or no binding | – | –
O=C(O)CN1CCC(NC(=O)Cc2c[nH]c3cc(F)ccc23)CC1 [Compound 10108, 2-(4-(2-(6-fluoro-1H-indol-3-yl)acetamido)piperidin-1-yl)acetic acid] | 1.34 | 5.72 | – | low or no binding | – | –
O=C(Cc1ccc(F)cc1)NCCc1c[nH]c2cc(F)ccc12 [Compound 10012] | 1.32 | 3.96 | – | low or no binding | – | –
C[C@H](NC(=O)Cc1c[nH]c2cc(F)ccc12)C(=O)O [Compound 10084] | 1.09 | 1.7 | – | low or no binding | – | –
O=C(O)[C@H]1CCCN(C(=O)Cc2c[nH]c3cc(F)ccc23)C1 [Compound 10133, (S)-1-(2-(6-fluoro-1H-indol-3-yl)acetyl)piperidine-3-carboxylic acid] | 1.63 | 2.85 | – | low or no binding | – | –
CC(=O)N1CCC[C@H]1C(=O)NCCc1c[nH]c2cc(F)ccc12 [Compound 10045] | 1.1 | 1.13 | – | low or no binding | – | –
O=C1CCN(C(=O)Cc2c[nH]c3cc(F)ccc23)CC1 [Compound 10106] | 2.25 | 13.41 | – | – | – | 2.19
CN(C)Cc1c[nH]c2ccc(F)cc12 [FS-1254, reference compound] | 1.15 | 0.74 | – | low or no binding | – | –
CC(=O)N1CC[C@@H](NC(=O)Cc2c[nH]c3cc(F)ccc23)C1 [Compound 10092, (R)—N-(1-acetylpyrrolidin-3-yl)-2-(6-fluoro-1H-indol-3-yl) acetamide] | 1.46 | 7.82 | – | low or no binding | – | –
O=C(Cc1c[nH]c2cc(F)ccc12)N1CCOC(c2ccccc2)C1 (stereo not shown) [Compound 10136] | 1.55 | 6.73 | – | low or no binding | – | –
